Assay results: patent US20060281695A1, “Control of parasites in animals by N-[(phenyloxy)phenyl]-1,1,1-trifluoromethanesulfonamide and N-[(phenylsulfanyl)phenyl]-1,1,1-trifluoromethanesulfonamide derivatives” (priority 2005, published 2006)

Columns and labels:
[1] = tested on: cat flea (Ctenocephalides felis); experiment: Ctenocephalides felis adulticide assay: single dose screen on treated glass surface (% mortality at 1.26 μg/cm^2, 24 hours); assay type: in vivo; conditions: for mortality at 1.26 µg/cm2, 1.26 µg/cm2: Ctenocephalides felis, 24 h, read-out: Ctenocephalides felis Mortality (%) 24 h
Method: The LC50 value is the concentration, expressed as μg/cm^2, that was required to kill 50% of the sample of cat fleas on contact with the tested compound. Certain tests are also reported as the percent of a sample of cat fleas that were killed at a concentration of 1.26 μg/cm^2 (“% mortality”), for the compounds tested in this way.
b) Ctenocephalides felis Adulticide Assay: C.felis single dose screen
Mortality of fleas is the primary endpoint in the assay. […] The concentration chosen (1.26 μg/cm^2) is higher than that known to kill 90% of cat fleas (LC90) using the reference compound, permethrin.
The test species employed was the cat flea (Ctenocephalides felis). The strain used was obtained from external suppliers as pupae and held in the laboratory under testing conditions until the adults had emerged. Fifteen (15) fleas were used in a minimum of four replicates against a single concentration level (approximately 60 fleas). The insects were selected to be in the adult life stage, aged between 3 and 7 days post emergence.
The compounds to be tested were supplied as solids and were prepared in acetone as described below prior to testing. Samples were stored in a refrigerator (5±1° C.) unless otherwise specified.
During the mortality testing, the temperature was maintained at 25±1° C. Humidity was maintained at 75±5%. The base (area=159 mm^2) of a 100 mL glass Erlenmeyer (conical) flask provided the treatment surface. Flasks were pre-treated with Coatasil™ glass treatment to maximise bio-availability of test compounds by preventing them from binding to glass the surface. The base of the 100 mL Erlenmeyer flask was treated with 0.5 mL of test sample in acetone and gently swirled. This volume was sufficient to cover the base of the flask. Flasks were left to dry for 24 hours before flea exposure.
Adult cat fleas were placed into a sorting chamber, which allowed fleas to jump into the Erlenmeyer flasks. Fifteen (15) adult cat fleas were collected in each flask. The top of the flasks were then covered in Parafilm™ and small holes were made to allow gas exchange. A 0.5 mL volume of acetone as a solvent control was applied to the base of an Erlenmeyer flask and the testing proceeded in the same manner described above. […] Pooled 24 hour mortality data were converted to percentages and are summarized by Table 4, below.
(§1) In Table 7, provided below, are listed the Haemonchus contortus LD99 values (measured in micrograms/mL), the Ctenocephalides felis rapid screening values (measured in % mortality), the Ctenocephalides felis LC50 values (measured in micrograms/cm^2) and the Rhipicephalus sanguineus rapid screening values (measured in % mortality) for selected compounds in accordance with the present invention.

[2] = tested on: Brown Dog Tick (Rhipicephalus sanguineus); experiment: Topical application on brown dog ticks, single dose screen (% mortality at 24 hours); assay type: in vivo; conditions: adult brown dog ticks, topical 1 μL in acetone on abdomen, single dose 10 μg per tick
Method: d) Topical Application On Brown Dog Ticks (Rhipicephalus sanguineus)
The aim of the test is to determine the presence of significant acaricidal activity in sample compounds or formulations when applied topically on brown dog ticks. A tick is defined as dead if it gives no apparent response when: (i) touched lightly and (ii) then observed for 1 minute. To assess the experimental compound for acaricidal activity, a single dose level is chosen based on known results from previous experiments with a commercially available active reference compound.
In the present example, both permethrin and fipronil were employed as reference compounds. The insect species tested was the Brown Dog Tick (Rhipicephalus sanguineus). Mixed sex adult ticks were used for tests. The strain used was cultured from a field strain and supplied as unfed adult ticks (mixed sex). Ticks were maintained in controlled conditions (temp. 18°±2° C., humidity 75±5% RH).
Test compounds (formulations or active ingredients) were stored in a refrigerator (5±1° C.) unless otherwise specified. The temperature was maintained at 25±1° C. and the humidity was ambient. The screening dose chosen was higher than that known kill 90% of insects (LD90) using the reference compound. In the case of topical application of active compounds on adult ticks, the reference compound was fipronil and the dose chosen was 10 μg of active per tick (=10 μg of fipronil/1 μl of acetone). Ticks were each treated on the abdomen with 1 μL of a single dose level of test sample in acetone; ten ticks were treated with solvent only (acetone) in each test. Tests were replicated 4 times (total of 40 ticks treated). Ticks were held in recovery containers maintained under appropriate rearing conditions for 24 hours. Mortality resulting from the treatments was recorded at 24 hours. Pooled 24 hour mortality data were converted to percentages.
as §1

Haemonchus contortus = Haemonchus contortus larvacidal (larval development) assay, LD99; assay type: in vitro
Method: The LD99 value is the dose, expressed as […], that was required to kill 99% of a sample of Haemonchus contortus.
a) Haemonchus Contortus Larvacidal Assay:
The effect of compounds on larval development was determined in the assay described by Gill et al. [International Journal of Parasitology 25:463-470 (1995)]. Briefly, in this assay, nematode eggs are applied to the surface of an agar matrix containing the test compound and then allowed to develop through to the L3, infective stage (6 days). The wells for each dilution of every compound (from highest to lowest concentration) are inspected to determine the well number corresponding to the lowest concentration at which development is inhibited in 99% of the nematode larvae present (LD99). Because well numbers correspond to a two-fold serial dilution of each compound, a titre (dilution factor) is generated as 2^n−1, where n is the well number. By dividing the highest concentration tested by the titre an LD99 value can be obtained, representing the concentration required to inhibit development in 99% of the nematode larvae present. The compounds supplied as solid and viscous liquids are dissolved in DMSO. Twelve serial one-half dilutions in DMSO solution are prepared from the stock solution, each of which is then diluted 1/5 with water. Aliquots (10 μl) of each dilution are transferred to the bioassay plates to give a final concentration range of 0.024 to 50 μg/ml.
as §1

[3] = adult cat fleas, single dose screen on treated glass surface, mortality at 24 h

| Structure (SMILES) | Ctenocephalides felis Mortality (%) 24 h ([1]; in vivo) [%] | Rhipicephalus sanguineus Mortality (%) 24 h [2] [%] | Haemonchus contortus LD99 (Haemonchus contortus) [µg/mL] | other results |
| --- | --- | --- | --- | --- |
| CCOCN(c1cccc(Oc2ccccc2)c1)S(=O)(=O)C(F)(F)F [m3] | 57 | 38 | – | – |
| C#CCN(c1ccc(Cl)cc1Oc1ccc(Cl)cc1Cl)S(=O)(=O)C(F)(F)F [Compound 83, N-[4-chloro-2-(2,4-dichlorophenoxy)phenyl]-N-(2-propynyl)-1,1,1-trifluoromethanesulfonamide] | – | 8 | – | mortality at 1.26 µg/cm2, 1.26 µg/cm2 [1]: 100% |
| O=S(=O)(Nc1ccccc1Nc1ccccc1)C(F)(F)F [Compound 90] | 88 | 13 | – | – |
| CCCC(=O)OCN(c1ccc(Cl)cc1Oc1ccc(Cl)cc1Cl)S(=O)(=O)C(F)(F)F [Compound 73, N-[4-chloro-2-(2,4-dichlorophenoxy)phenyl]-N-(butyryl)oxymethyl-1,1,1-trifluoromethanesulfonamide] | – | 8 | – | mortality at 1.26 µg/cm2, 1.26 µg/cm2 [1]: 31%; Ctenocephalides felis Mortality (%), measured at 48 hours ([1]; in vivo): 100% |
| COCN(c1ccc(Cl)cc1Oc1ccc(Cl)cc1Cl)S(=O)(=O)C(F)(F)F [Compound 84] | 100 | 0 | – | – |
| CC(C)=CCN(c1ccc(Cl)cc1Oc1ccc(Cl)cc1Cl)S(=O)(=O)C(F)(F)F [Compound 75, N-(3-methyl-2-butenyl)-N-[4-chloro-2-(2,4-dichlorophenoxy)phenyl]-1,1,1-trifluoromethanesulfonamide] | – | 3 | – | mortality at 1.26 µg/cm2, 1.26 µg/cm2 [1]: 97% |
| O=S(=O)(Nc1ccc(Cl)cc1Oc1ccc(Cl)c(Cl)c1)C(F)(F)F [Compound 7] | – | – | 1.63 | Ctenocephalides felis Mortality (%) 24 h [1, 3]: 22% |
| O=S(=O)(Nc1cc(C(F)(F)F)c(Cl)cc1Oc1ccc(Cl)cc1Cl)C(F)(F)F [Compound 22] | 4 | – | 0.63 | – |
| O=S(=O)(Nc1cccc(Cl)c1Oc1ccc(Cl)cc1Cl)C(F)(F)F [Compound 11] | 20 | – | 2.5 | – |
| O=S(=O)(Nc1ccc(Cl)c(Cl)c1Oc1ccccc1F)C(F)(F)F [Compound 17] | 19 | – | 7.5 | – |
| O=S(=O)(Nc1ccc(Cl)cc1Oc1cccc2c1CCCC2)C(F)(F)F [Compound 28] | – | – | 12 | Ctenocephalides felis Mortality (%) 24 h [1, 3]: 10% |
| CC(C)=CCN(c1ccc(Cl)cc1Oc1ccccc1F)S(=O)(=O)C(F)(F)F [Compound 82] | 90 | 0 | – | – |
| C#CCN(c1ccc(Cl)cc1Oc1ccccc1F)S(=O)(=O)C(F)(F)F [Compound 85] | 97 | 5 | – | – |
| O=S(=O)(Nc1ccc(Cl)cc1Oc1ccccc1Cl)C(F)(F)F [Compound 6] | 74 | – | 15.0 | – |
| O=S(=O)(Nc1cc(C(F)(F)F)ccc1Oc1ccc(Cl)cc1)C(F)(F)F [Compound 29] | 57 | – | 7.0 | – |
| O=S(=O)(c1ccc(Cl)cc1)c1cc(Cl)ccc1NS(=O)(=O)C(F)(F)F [Compound 24, N-[4-chloro-2-(4-(chlorophenyl)sulfonyl)phenyl]-1,1,1-trifluoromethanesulfonamide] | 19 | – | 12.0 | – |
| CC(C)(C)c1ccc(Oc2cc(Cl)c(Cl)cc2NS(=O)(=O)C(F)(F)F)cc1 [Compound 18] | 19 | – | 2.8 | – |
| O=S(=O)(Nc1cc(Cl)c(Cl)cc1Oc1ccc(F)cc1Cl)C(F)(F)F [Compound 19] | 42 | – | 5.0 | – |
| CC(C)(C)c1ccc(Oc2cc(Cl)ccc2NS(=O)(=O)C(F)(F)F)cc1 [Compound 3] | 58 | – | 7.0 | – |
